Source: US20230373989A1, “N-PHENYLAMINOCARBONYL PYRIDINO-, PYRIMIDINO AND BENZO-TROPANES AS MODULATORS OF GPR65” (PATHIOS THERAPEUTICS LIMITED, priority 2020, published 2023)
Like-named read-outs stand apart in the source and are kept apart here.

Biological target: T1, human recombinant GPR65 (Homo sapiens, UniProt Q8IYL9)
T1 construct: host or cells: 1321N1 human astrocytoma cells (1321N1-hrGPR65)
Assay: Human GPR65 cAMP HTRF antagonist assay
Format: cell-based
Source text: In one preferred embodiment, the compound prevents the increase in cytoplasmic cAMP levels expected following GPR65 activation at acidic pH. This prevention of cAMP accumulation in turn prevents downstream signalling through ICER, as described above. The “Human GPR65 cyclic adenosine monophosphate (cAMP) Homogeneous Time Resolved Fluorescence (HTRF) antagonist assay”, or simply “cAMP assay”, as described in the accompanying examples, can be used to measure the potency of GPR65 modulators, which is expressed as the concentration of compound required to reduce the increase in cAMP concentration upon GPR65 activation by 50% (i.e. an IC50).
Human GPR65 Cyclic Adenosine Monophosphate (cAMP) Homogeneous Time Resolved Fluorescence (HTRF) Antagonist Assay Procedure
IC50 data was obtained by the following procedure:
1321N1 human astrocytoma cells stably expressing human recombinant GPR65 (1321N1-hrGPR65 cells, EuroscreenFast) were cultured according to the vendor's instructions.
Compounds were tested for their ability to antagonise GPR65, through measuring the concentration of cytoplasmic cAMP following treatment of the cells at a pH of 7.2 to activate GPR65 signalling and addition of the compound to be tested. The extent to which the expected rise in cAMP concentration upon GPR65 activation was suppressed by the added compound is indicative of its potency. The assay was carried out according to EuroscreenFast assay methodology as follows.
On the day of the assay, test compounds were added to 384-well, low volume, white microtiter plates by acoustic dispensing. KRH buffer (5 mM KCl, 1.25 mM MgSO4, 124 mM NaCl, 25 mM HEPES, 13.3 mM Glucose, 1.25 mM KH2PO4 and 1.45 mM CaCl2) was adjusted to pH 6.5, pH 7.6 and pH 8.4 by adding NaOH. 1321N1-hGPR65 cells were rapidly thawed and diluted in KRH, pH 7.6 prior to centrifugation at 300×g for 5 min and resuspension in assay buffer (KRH, pH 7.6, supplemented with 1 mM 3-isobutyl-1-methylxanthine (IBMX) and 200 μM ethylenediaminetetraacetic acid (EDTA)). Cells were added to assay plates at a density of 2,000 cells per well in a volume of 5 μl. Assay plates were briefly centrifuged at 100×g and then incubated at room temperature for 30 min. Cells were stimulated by the addition of 5 μL KRH, pH 6.5, to achieve an assay pH of 7.2, while control wells received 5 μl KRH, pH 8.4 to achieve an assay pH of 7.9. Assay plates were briefly centrifuged at 100×g and then incubated at room temperature for 30 min.
Accumulation of cAMP was detected by cAMP HTRF kit (Cisbio). d2-labeled cAMP and cryptate-labeled anti-cAMP antibody in Lysis and Detection Buffer (Cisbio) were added to assay plates, and the plates were incubated at room temperature for 1 h. HTRF measurements were performed using a Pherastar FSX instrument. Acceptor and donor emission signals were measured at 665 nm and 620 nm, respectively, and HTRF ratios were calculated as signal665 nm/signal620 nm×104. Data were normalised to high and low control values and fitted with 4-parameter logistic regression to determine hGPR65 IC50 values for the test compounds, which are shown in Table 1.

[1] = 1321N1-hrGPR65 cells, assay pH 7.2, cAMP HTRF, read-out: hGPR65 IC50 (activity class)

T1 sequence (Q8IYL9 whole entry): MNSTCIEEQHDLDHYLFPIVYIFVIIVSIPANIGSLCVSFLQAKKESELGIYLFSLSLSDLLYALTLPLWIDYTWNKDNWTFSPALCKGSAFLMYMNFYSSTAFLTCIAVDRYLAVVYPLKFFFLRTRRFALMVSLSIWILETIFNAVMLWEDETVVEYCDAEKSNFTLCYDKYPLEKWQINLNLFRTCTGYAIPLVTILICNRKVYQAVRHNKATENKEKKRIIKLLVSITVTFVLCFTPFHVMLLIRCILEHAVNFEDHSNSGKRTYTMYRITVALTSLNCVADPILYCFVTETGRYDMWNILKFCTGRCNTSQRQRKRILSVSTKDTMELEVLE

Row | Structure (SMILES) | IC50 [nM] | IC50 [1] [nM]
1 | N#Cc1cc(Cl)c(Cl)cc1NC(=O)N1[C@H]2CC[C@@H]1c1ccnc(F)c1C2 [Compound 98, (5R,8S)-N-(4,5-Dichloro-2-cyanophenyl)-1-fluoro-6,7,8,9-tetrahydro-5H-5,8-epiminocyclohepta[c]pyridine-10-carboxamide] | < 500 | 
2 | O=C(Nc1ccc(Cl)c(Cl)c1)N1C2CCC1c1c[n+]([O-])ccc1C2 (racemic) [Compound 59, (±)-10-((3,4-Dichlorophenyl)carbamoyl)-6,7,8,9-tetrahydro-5H-6,9-epiminocyclohepta[c]pyridine 2-oxide] |  | > 5000
3 | C=CC(=O)Nc1ccc(NC(=O)N2[C@H]3CC[C@@H]2c2ccnc(F)c2C3)cc1Cl [Compound 179, (5R,8S)-N-(4-Acrylamido-3-chlorophenyl)-1-fluoro-6,7,8,9-tetrahydro-5H-5,8-epiminocyclohepta[c]pyridine-10-carboxamide] | 500 to 5000 | 
4 | O=C(Nc1cc(Cl)c(C(F)(F)F)cc1F)N1[C@H]2CC[C@@H]1c1c[nH]c(=O)cc1C2 [Compound 93, (6S,9R)-N-(5-Chloro-2-fluoro-4-(trifluoromethyl)phenyl)-3-oxo-3,5,6,7,8,9-hexahydro-2H-6,9-epiminocyclohepta[c]pyridine-10-carboxamide] | < 500 | 
5 | O=C(Nc1cc(Cl)c(C(F)(F)F)cc1F)N1[C@H]2CC[C@@H]1c1ccnc(F)c1C2 [Compound 101, (5R,8S)-N-(5-Chloro-2-fluoro-4-(trifluoromethyl)phenyl)-1-fluoro-6,7,8,9-tetrahydro-5H-5.8-epiminocyclohepta[c]pyridine-10-carboxamide] | < 500 | 
6 | O=C(Nc1ccc(Cl)c(Cl)c1)N1[C@H]2CC[C@@H]1c1c[nH]c(=O)cc1C2 [Compound 103, (6S,9R)-N-(3,4-Dichlorophenyl)-3-oxo-3,5,6,7,8,9-hexahydro-2H-6,9-epiminocyclohepta[c]pyridine-10-carboxamide] | < 500 | 
7 | COC(=O)c1cc(NC(=O)N2[C@H]3CC[C@@H]2c2c[nH]c(=O)cc2C3)ccc1Cl [Compound 131, Methyl 2-chloro-5-((6S,9R)-3-oxo-3,5,6,7,8,9-hexahydro-2H-6,9-epiminocyclohepta[c]pyridine-10-carboxamido)benzoate] |  | 500 to 5000
8 | O=C(Nc1ccc(Cl)c(C(F)(F)F)c1)N1C2CCC1c1cnc(-c3ccccc3)nc1C2 (racemic) [Compound 28, (±)-N-(4-Chloro-3-(trifluoromethyl)phenyl)-2-phenyl-6,7,8,9-tetrahydro-5H-5,8-epiminocyclohepta[d]pyrimidine-10-carboxamide] |  | > 5000
9 | O=C(Nc1ccc(Cl)c(C(F)(F)F)c1)N1C2CCC1c1ccccc1C2 (racemic) [Compound 55, (±)-N-(4-Chloro-3-(trifluoromethyl)phenyl)-6,7,8,9-tetrahydro-5H-5,8-epiminobenzo[7]annulene-10-carboxamide] |  | 500 to 5000
10 | O=C(Nc1ccc(Cl)c(C(F)(F)F)c1)N1C2CCC1c1cncnc1C2 (racemic) [Compound 3, (±)-N-(4-Chloro-3-(trifluoromethyl)phenyl)-6,7,8,9-tetrahydro-5H-5,8-epiminocyclohepta[d]pyrimidine-10-carboxamide] |  | 500 to 5000
11 | O=C(Nc1ccc(F)c(F)c1)N1C2CCC1c1cncnc1C2 (racemic) [Compound 6, (±)-N-(3,4-Difluorophenyl)-6,7,8,9-tetrahydro-5H-5,8-epiminocyclohepta[d]pyrimidine-10-carboxamide] |  | > 5000
12 | O=C(Nc1cc(Cl)c(Cl)cc1F)N1C2CCC1c1cnncc1C2 (racemic) [Compound 193, (±)-N-(4,5-Dichloro-2-fluorophenyl)-6,7,8,9-tetrahydro-5H-5,8-epiminocyclohepta[d]pyridazine-10-carboxamide] |  | 500 to 5000
13 | COC(=O)c1ccc(NC(=O)N2[C@H]3CC[C@@H]2c2ccnc(F)c2C3)cc1Cl [Compound 122, Methyl 2-chloro-4-((5R,8S)-1-fluoro-6,7,8,9-tetrahydro-5H-5,8-epiminocyclohepta[c]pyridine-10-carboxamido)benzoate] | < 500 | 
14 | COC(=O)c1ccc(NC(=O)N2[C@H]3CC[C@@H]2c2c[nH]c(=O)cc2C3)cc1Cl [Compound 130, Methyl 2-chloro-4-((6S,9R)-3-oxo-3,5,6,7,8,9-hexahydro-2H-6,9-epiminocyclohepta[c]pyridine-10-carboxamido)benzoate] |  | 500 to 5000
15 | O=C(Nc1ccc(Cl)c(Cl)c1)N1[C@H]2CC[C@@H]1c1cnc(F)cc1C2 [Compound 91, (6S,9R)-N-(3,4-Dichlorophenyl)-3-fluoro-6,7,8,9-tetrahydro-5H-6.9-epiminocyclohepta[c]pyridine-10-carboxamide] | < 500 | 
16 | O=C(Nc1cc(Br)c(C(F)(F)F)cc1F)N1[C@H]2CC[C@@H]1c1ccnc(F)c1C2 [Compound 180, (5R,8S)-N-(5-Bromo-2-fluoro-4-(trifluoromethyl)phenyl)-1-fluoro-6,7,8,9-tetrahydro-5H-5,8-epiminocyclohepta[c]pyridine-10-carboxamide] | < 500 | 
17 | O=C(Nc1ccc(Cl)c(Cl)c1)N1C2CCC1c1cnc(F)c(F)c1C2 (racemic) [Compound 135, (±)-N-(3,4-Dichlorophenyl)-3,4-difluoro-6,7,8,9-tetrahydro-5H-6,9-epiminocyclohepta[c]pyridine-10-carboxamide] |  | 500 to 5000
18 | O=C(Nc1cccc(Cl)c1)N1C2CCC1c1cncnc1C2 (racemic) [Compound 50, (±)-N-(3-Chlorophenyl)-6,7,8,9-tetrahydro-5H-5,8-epiminocyclohepta[d]pyrimidine-10-carboxamide] |  | > 5000
19 | O=C(Nc1ccc(Oc2ccccc2)cc1)N1[C@H]2CC[C@@H]1c1ccnc(F)c1C2 [Compound 185, (5R,8S)-1-Fluoro-N-(4-phenoxyphenyl)-6,7,8,9-tetrahydro-5H-5,8-epiminocyclohepta[c]pyridine-10-carboxamide] | < 500 | 
20 | O=C(Nc1ccc(Br)c(Br)c1)N1C2CCC1c1cncnc1C2 (racemic) [Compound 16, (±)-N-(3,4-Dibromophenyl)-6.7,8,9-tetrahydro-5H-5,8-epiminocyclohepta[d]pyrimidine-10-carboxamide] | < 500 | 
21 | O=C(Nc1ccc(Br)c(Cl)c1)N1[C@H]2CC[C@@H]1c1c[nH]c(=O)cc1C2 [Compound 143, (6S,9R)-N-(4-Bromo-3-chlorophenyl)-3-oxo-3,5,6,7,8,9-hexahydro-2H-6,9-epiminocyclohepta[c]pyridine-10-carboxamide] | < 500 | 
22 | Cc1cc(Cl)c(Cl)cc1NC(=O)N1[C@H]2CC[C@@H]1c1ccnc(F)c1C2 [Compound 117, (5R,8S)-N-(4,5-Dichloro-2-methylphenyl)-1-fluoro-6,7,8,9-tetrahydro-5H-5,8-epiminocyclohepta[c]pyridine-10-carboxamide] | < 500 | 
23 | Cn1cc2c(cc1=O)C[C@@H]1CC[C@H]2N1C(=O)Nc1ccc(Cl)c(Cl)c1 [Compound 150, (6S,9R)—N-(3,4-Dichlorophenyl)-2-methyl-3-oxo-3,5,6,7,8,9-hexahydro-2H-6,9-epiminocyclohepta[c]pyridine-10-carboxamide] |  | 500 to 5000
24 | O=C(Nc1ccc(Cl)c(Cl)c1)N1[C@H]2CC[C@@H]1c1cncnc1C2 [Compound 52, (5R,8S)-N-(3,4-Dichlorophenyl)-6,7,8,9-tetrahydro-5H-5,8-epiminocyclohepta[d]pyrimidine-10-carboxamide] | < 500 | 
25 | O=C(Nc1ccc(Cl)c(Cl)c1)N1[C@@H]2CC[C@H]1c1cnccc1C2 [Compound 112, (6R,9S)-N-(3,4-Dichlorophenyl)-6,7,8,9-tetrahydro-5H-6,9-epiminocyclohepta[c]pyridine-10-carboxamide] |  | > 5000
26 | O=C(Nc1cc(Cl)c(C(F)(F)F)cc1F)N1[C@H]2CC[C@@H]1c1ccc(F)nc1C2 [Compound 196, (5R,8S)-N-(5-Chloro-2-fluoro-4-(trifluoromethyl)phenyl)-2-fluoro-6,7,8,9-tetrahydro-5H-5,8-epiminocyclohepta[b]pyridine-10-carboxamide] | < 500 | 
